Measured values taken from patent publication US20080153756A1, “Novel Peptides and Methods for the Treatment of Inflammatory Disorders” (Auckland Uniservices Limited, priority 2005, published 2008).
Ends that are not written are not given here.

Columns and labels:
[1] = tested on: adhesion of TK-1 (α4β7+ α4β1−) cells to MAdCAM-1; experiment: Cell adhesion assay: TK-1 cells to MAdCAM-1-Fc coated plates; type: cell-based, mouse; conditions: PMA-activated TK-1 cells, peptide up to 50 μM
[2] = tested on: adhesion of Mn++-activated TK-1 cells (α4+ β7+ β1−) to VCAM-1; experiment: Cell adhesion assay: Mn2+-activated TK-1 cells to VCAM-1-Fc coated wells; type: cell-based, mouse; conditions: for inhibition of cell adhesion to VCAM-1: highest concentration tested, 50 μM; for inhibition of cell adhesion to VCAM-1 / maximal inhibition of adhesion to VCAM-1: Mn++-activated TK-1 cells
Description: The soluble VCAM-1-Fc chimera was produced using the glutamine synthetase gene amplification system. The extracellular portions of human VCAM-1 fused to the Fc domain of human IgG1 was expressed from the pEE14 vector (kindly provided by Dr Chris Bebbington, Celltech Ltd, UK) in CHO K1 cells as described previously (27).
(§1) Lab-Tek 16-well glass slides (Nunc) or flat-bottom 96-well plates (Nunc Maxisorp) were coated overnight at 4° C. with purified VCAM-1-Fc at 10 μg/well in 100 μl of 0.1 M carbonate buffer (pH 9.5). After washing plates were blocked with 100% heat-inactivated FCS, and washed with Hanks balanced salt solution (HBSS) containing 10 mM Hepes, 2 mM Ca^2+ and 2 mM Mn^2+. TK-1 cells were either left unlabeled or labeled with the fluorescent dye chloromethyl fluorescein diacetate (CMFDA; Molecular Probes, Oreg.). For peptide inhibition studies, TK-1 cells were preincubated with peptide in serum-free medium for 30 min at 37° C. and activated by suspension in an Mn^2+-containing buffer (HBSS: 10 mM Hepes containing 2 mM Ca^2+, 2 mM Mn^2+, and 2% FCS). Human IgG1 Ab (10 μg/ml; Sigma) was added to prevent nonspecific capture of cells to the Fc portion of […]. Cells were checked for viability by trypan blue exclusion, added to wells (10^6 cells/well), and incubated for 30 min at 37° C. in a humidified atmosphere of 5% CO2. Non-adherent cells were removed by inverse centrifugation of the plates at 70×g for 5 min followed by gentle pipette washing. The number of unlabeled adherent cells was determined by counting the number of adherent cells in four independent fields at 100× magnification under an inverted microscope. The fluorescence of CMFDA-labeled adherent cells was measured using a VICTOR 1420 multilabel counter (Wallac). Representative data are reported as mean±SD of two independent experiments performed in duplicate. Antibodies against the integrin β7 subunit (Fib504 mAb), and α4β7 complex (DATK32 mAb) were included as positive controls, and added (1:100 dilution of ascites) to cells 20 min prior to the adhesion assay.

TK-1 cells = experiment: Cell viability of peptide-treated TK-1 cells (trypan blue exclusion); type: cell-based, mouse; conditions: data not shown
Description: as §1, with “Non-adherent cells were removed by inverse centrifugation of the plates at 70×g for 5 min followed by gentle pipette washing.” left out, “Representative data are reported as mean±SD of two independent experiments performed in duplicate. Antibodies against the integrin β7 subunit (Fib504 mAb), and α4β7 complex (DATK32 mAb) were included as positive controls, and added (1:100 dilution of ascites) to cells 20 min prior to the adhesion assay.” left out

[3] = target: T1, soluble VCAM-1-Fc chimera (extracellular portions of human VCAM-1 fused to the Fc domain of human IgG1) (human, UniProt P19320 25-698); experiment: cell-based or functional assay
T1 sequence (looked up): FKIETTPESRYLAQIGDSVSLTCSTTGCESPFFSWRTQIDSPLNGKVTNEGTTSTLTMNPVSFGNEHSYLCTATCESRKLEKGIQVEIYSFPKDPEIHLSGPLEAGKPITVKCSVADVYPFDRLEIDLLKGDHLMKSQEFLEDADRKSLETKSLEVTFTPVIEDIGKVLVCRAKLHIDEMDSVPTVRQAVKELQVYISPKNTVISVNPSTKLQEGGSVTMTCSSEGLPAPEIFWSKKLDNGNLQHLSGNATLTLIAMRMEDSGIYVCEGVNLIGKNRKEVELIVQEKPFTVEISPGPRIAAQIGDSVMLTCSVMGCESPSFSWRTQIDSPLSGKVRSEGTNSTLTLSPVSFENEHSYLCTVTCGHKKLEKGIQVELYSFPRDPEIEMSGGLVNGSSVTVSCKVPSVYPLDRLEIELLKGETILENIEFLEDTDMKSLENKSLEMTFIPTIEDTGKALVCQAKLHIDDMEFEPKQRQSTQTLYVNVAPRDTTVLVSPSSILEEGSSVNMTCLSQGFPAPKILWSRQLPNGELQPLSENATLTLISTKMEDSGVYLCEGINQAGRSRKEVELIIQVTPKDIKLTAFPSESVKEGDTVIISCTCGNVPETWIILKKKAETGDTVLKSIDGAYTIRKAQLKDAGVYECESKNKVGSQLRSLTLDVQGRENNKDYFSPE

DSWS
inhibition of PMA-induced T cell adhesion to MAdCAM-1 (in words) [1]: inactive

YINSK ({biotinylated r9}-YINSK; listed as Homo sapiens) [r9-YINSK]
inhibition of cell adhesion to VCAM-1 [2]: 80%

DSWSY [r9-DSWSY]
inhibition of cell adhesion to VCAM-1 [2]: 75%

CC[C@H](C)[C@H](NC(=O)[C@H](Cc1ccc(O)cc1)NC(=O)[C@H](CO)NC(=O)[C@H](Cc1c[nH]c2ccccc12)NC(=O)[C@H](CO)NC(=O)[C@H](CC(=O)O)NC(=O)[C@H](CCCCN)NC(=O)[C@H](CCCCN)NC(=O)[C@H](Cc1c[nH]c2ccccc12)NC(=O)[C@H](CCCCN)NC(=O)[C@H](CCSC)NC(=O)[C@H](CCCNC(=N)N)NC(=O)[C@H](CCCNC(=N)N)NC(=O)[C@H](CC(N)=O)NC(=O)[C@H](CCC(N)=O)NC(=O)[C@H](Cc1ccccc1)NC(=O)[C@H](Cc1c[nH]c2ccccc12)NC(=O)[C@@H](NC(=O)[C@H](CCCCN)NC(=O)[C@@H](NC(=O)[C@H](CCC(N)=O)NC(=O)[C@@H](N)CCCNC(=N)N)[C@@H](C)CC)[C@@H](C)CC)C(=O)N[C@@H](CC(N)=O)C(=O)N[C@@H](CO)C(=O)N[C@@H](CCCCN)C(=O)N[C@@H](CO)C(=O)N[C@@H](CC(N)=O)C(=O)N[C@@H](CC(=O)O)C(=O)N[C@@H](CC(=O)O)C(=O)O [Pen-DSWSYINSKSNDD, DSWSYINSKSNDD]
inhibition of T cell adhesion to VCAM-1 (in words) ([2]; Mn2+-activated TK-1 cells, FIG. 2A): active | maximal inhibition of adhesion to VCAM-1 ([2]; at 30 μM): 72%

YINSKSNDD (not fully specified (N-terminus); also: N-terminal carrier biotinylated penetratin or r9, not given here for this peptide; listed as Homo sapiens) [r9-YINSKSNDD]
maximal inhibition of adhesion to VCAM-1 ([2]; at 6 μM peptide): ~67% | effect on cell viability (in words) (TK-1 cells): no effect

QYKSILQEENRRD [Pen-QYKSILQEENRRD]
inhibition of cell adhesion to VCAM-1 [2]: 14%

SWSY (listed as Homo sapiens)
inhibition of PMA-induced T cell adhesion to MAdCAM-1 (in words) [1]: retained the ability of the parent peptide DSWSY to inhibit T cell adhesion

KSNDD ({biotinylated r9}-KSNDD; listed as Homo sapiens) [r9-KSNDD]
inhibition of cell adhesion to VCAM-1 [2]: 27%

DSWSYINS (not fully specified (N-terminus); also: N-terminal carrier biotinylated penetratin or r9, not given here for this peptide; listed as Homo sapiens) [r9-DSWSYINS]
maximal inhibition of adhesion to VCAM-1 ([2]; at 6 μM peptide): ~67% | cells killed (TK-1 cells; 50 μM peptide): 15%

B1: integrin α4β7 on mouse TK-1 T lymphoma cells (α4β7+ α4β1-) (receptor)
chain 1: YNLDPENALLYQGPSGTLFGYSVVLHSHGSKRWLIVGAPTASWLSNASVVNPGAIYRCGIRKNPNQTCEQLQSGSPSGEPCGKTCLEERDNQWLGVTLSRQPGENGSIVTCGHRWKNIFYMKSDNKLPTGICYVMPSDLRTELSKRMAPCYKDYTRKFGENFASCQAGISSFYTQDLIVMGAPGSSYWTGTVFVYNITTNQYKAFVDRQNQVKFGSYLGYSVGAGHFRSPHTTEVVGGAPQHEQIGKAYIFSIDENELNIVYEMKGKKLGSYFGASVCAVDLNADGFSDLLVGAPMQSTIREEGRVFVYINSGMGAVMVEMERVLVGSDKYAARFGESIANLGDIDNDGFEDIAIGAPQEDDLRGAVYIYNGRVDGISSTYSQRIEGQQISKSLRMFGQSISGQIDADNNGYVDVAVGAFQSDSAVLLRTRPVVIVEASLSHPESVNRTKFDCTENGLPSVCMHLTLCFSYKGKEVPGYIVLFYNVSLDVHRKAESPSRFYFFSNGTSDVITGSIRVSSSGEKCRTHQAFMRKDVRDILTPIHVEATYHLGHHVITKRNTEEFPPLQPILQQKKEKDVIRKMINFARFCAYENCSADLQVSAKVGFLKPYENKTYLAVGSMKTIMLNVSLFNAGDDAYETTLNVQLPTGLYFIKILDLEEKQINCEVTESSGIVKLACSLGYIYVDRLSRIDISFLLDVSSLSRAHEDLSISVHASCENEGELDQVRDNRVTLTIPLRYEVMLTVHGLVNPTSFVYGSSEENEPETCMAEKLNLTFHVINTGISMAPNVSVKIMVPNSFLPQDDKLFNVLDVQTTTGQCHFKHYGRECTFAQQKGIAGTLTDIVKFLSKTDKRLLYCMKADQHCLDFLCNFGKMESGKEASVHIQLEGRPSILEMDETSSLKFEIKATAFPEPHPKVIELNKDENVAHVFLEGLHHQRPKRHFTIIIITISLLLGLIVLLLISCVMWKAGFFKRQYKSILQEENRRDSWSYVNSKSNDD
chain 2: ELDTKITSSGEAAEWEDPDLSLQGSCQPVPSCQKCILSHPSCAWCKQLNFTASGEAEARRCARREELLARGCPAQELEEPRGRQEVLQDKPLSQGDRGEGATQLAPQRIRVTLRPGEPQKFRVRFLRAAGYPVDLYYLMDLSYSMKDDLERVRQLGHALLVRLQEVTHSVRIGFGSFVDKTVLPFVSTVPSKLHHPCPSRLERCQPPFSFHHVLSLTGDAQAFEREVGRQNVSGNLDSPEGGFDAILQAALCQEQIGWRNVSRLLVFTSDDTFHTAGDGKLGGIFMPSDGRCHLDSNGVYTNSAEFDYPSVGQVAQALTAANIQPIFAVTGATLPVYQELRQLIPKSAVGELSEDSSNVVQLIMDAYDSLSSTVTLEHSPLPPGVSISFESHCKGPEKTEGEAGDRGQCNDVRVNQTVDFWVTLQATHCLPEAHVLRLWALGFSEELTVELHTVCDCNCGDAQPHAPYCSDGQGDLQCGICSCAPGRLGQLCECSEADLSSPDLESGCRAPNGTGPLCSGKGRCQCGRCSCSGQSSGRLCECDDASCERHEGILCGGFGHCQCGVCHCHANHTGRACECSKSVDSCVSPEGGLCSGHGYCKCNRCQCLDGYYGALCDQCLGCKSPCEQYRDCAECGAFGTGPLAANCSVVCADVNVTLTLAPNLDDGWCKERTIDNQLFFFLVEHAASGIVLRVRPQEKGVDHTRAIILGCTGGIVAVGLGLVLAYRLSVEIYDRREYRRFEKEQQQLNWKQDNNPLYKSAITTTVNPRFQGTNGRSPSLSLTREAD
IC50 of the cell-permeable peptide Pen-… for inhibition of adhesion of Mn++-activated TK-1 cells to VCAM-1 [3]: 20 µM
